Test results published in patent publication US4755513A, “Antimicrobial 1-substituted phenyl-4-oxoquinoline-3-carboxylic acid compounds” (Otsuka Pharmaceutical Company, Limited, priority 1985, dated 1988).
Read-outs that look alike come from different tables or passages of the source.

Tests used:
[1] = tested on: Bacillus subtilis ATCC 6633; experiment: MIC by serial dilution method on agar plate; type: cell-based
Description: (§1) Chemotherapy, 22, 1126-1128 (1974)]. The microorganisms were used in a concentration of 1×10^8 cells/ml (O.D. 660 mμ, 0.07-0.16) and 1×10^6 cells/ml (100 folds dilution).

[2] = tested on: Escherichia coli NIHJ JC-2; experiment: MIC by serial dilution method on agar plate; type: cell-based
Description: as §1

[3] = tested on: Pseudomonas aeruginosa E-2; experiment: MIC by serial dilution method on agar plate; type: cell-based
Description: as §1

Escherichia coli No. 29 = experiment: MIC by serial dilution method on agar plate; type: cell-based
Description: as §1

[4] = tested on: Klebsiella pneumoniae NCTC 9632; experiment: MIC by serial dilution method on agar plate; type: cell-based
Description: as §1

[5] = tested on: Proteus morganii IID Kono; experiment: MIC by serial dilution method on agar plate; type: cell-based
Description: as §1

[6] = tested on: Streptococcus faecalis IFO 12580; experiment: MIC by serial dilution method on agar plate; type: cell-based
Description: as §1

[7] = tested on: Proteus inconstans IFO 12930; experiment: MIC by serial dilution method on agar plate; type: cell-based
Description: as §1

[8] = tested on: Pseudomonas aeruginosa ATCC 10145; experiment: MIC by serial dilution method on agar plate; type: cell-based
Description: as §1

[9] = tested on: Acinetobacter calcoaceticus AC-54; experiment: MIC by serial dilution method on agar plate; type: cell-based
Description: as §1

[10] = tested on: Serratia marcescens IFO 12648; experiment: MIC by serial dilution method on agar plate; type: cell-based
Description: as §1

[11] = tested on: Staphylococcus pyrogens IID S-23; experiment: MIC by serial dilution method on agar plate; type: cell-based
Description: (§2) The microorganisms were used in a concentration of 1×10^8 cells/ml (O.D. 660 mμ, 0.07-0.16) and 1×10^6 cells/ml (100 folds dilution).

[12] = tested on: Staphylococcus aureus FDA 209P; experiment: MIC by serial dilution method on agar plate; type: cell-based
Description: as §2

[13] = Absorption by oral administration in monkey (plasma concentration, thin layer cup bio-assay); type: in vivo; conditions: 10 mg/kg;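 further: plasma concentration in γ/ml (µg/mL) rather than the printed ng/mL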
Method: The test compounds were dissolved in 0.1N hydrochloric acid or suspended in 0.5% sodium carboxymethyl cellulose solution. The solution or suspension was administered into stomach of monkey (two monkeys) with cathetel. After the administration of test compounds, the blood was collected from the lower limbs vein at a fixed interval with a syringe treated with heparin. The collected blood was centrifuged at 3,000 r.p.m. for 10 minutes to separate the plasma. The concentration of the test compound was measured by a thin layer cup method (a bio-assay), wherein Bacillus subtilis ATCC 6633 was used as a bacteria for determination. Based on a standard curve, the concentration of test compound in plasma was calculated.

Compound: 6,8-Difluoro-1-(4-hydroxyphenyl)-7-(1-piperazinyl)-1,4-dihydro-4-oxoquinoline-3-carboxylic acid [Example 2]
- minimum inhibitory concentration (MIC) ([1]; 1 × 10^6 cells/ml): 0.097
- minimum inhibitory concentration (MIC) ([1]; 1 × 10^8 cells/ml): 0.195
- minimum inhibitory concentration (MIC) ([2]; 1 × 10^6 cells/ml): < 0.048
- minimum inhibitory concentration (MIC) ([2]; 1 × 10^8 cells/ml): < 0.048
- minimum inhibitory concentration (MIC) ([3]; 1 × 10^6 cells/ml): 0.781
- minimum inhibitory concentration (MIC) ([3]; 1 × 10^8 cells/ml): 1.56
- minimum inhibitory concentration (MIC) (Escherichia coli No. 29; 1 × 10^6 cells/ml): < 0.048
- minimum inhibitory concentration (MIC) (Escherichia coli No. 29; 1 × 10^8 cells/ml): < 0.048
- minimum inhibitory concentration (MIC) ([4]; 1 × 10^6 cells/ml): < 0.048
- minimum inhibitory concentration (MIC) ([4]; 1 × 10^8 cells/ml): < 0.048
- minimum inhibitory concentration (MIC) ([5]; 1 × 10^6 cells/ml): 0.048
- minimum inhibitory concentration (MIC) ([5]; 1 × 10^8 cells/ml): 0.097
- minimum inhibitory concentration (MIC) ([6]; 1 × 10^6 cells/ml): 3.12
- minimum inhibitory concentration (MIC) ([6]; 1 × 10^8 cells/ml): 6.25
- minimum inhibitory concentration (MIC) ([7]; 1 × 10^6 cells/ml): 0.195
- minimum inhibitory concentration (MIC) ([7]; 1 × 10^8 cells/ml): 0.39
- minimum inhibitory concentration (MIC) ([8]; 1 × 10^6 cells/ml): 0.781
- minimum inhibitory concentration (MIC) ([8]; 1 × 10^8 cells/ml): 1.56
- minimum inhibitory concentration (MIC) ([9]; 1 × 10^6 cells/ml): 0.195
- minimum inhibitory concentration (MIC) ([9]; 1 × 10^8 cells/ml): 0.39
- minimum inhibitory concentration (MIC) ([10]; 1 × 10^6 cells/ml): 0.097
- minimum inhibitory concentration (MIC) ([10]; 1 × 10^8 cells/ml): 0.195
- minimum inhibitory concentration (MIC) ([11]; 1 × 10^8 cells/ml): 12.5
- minimum inhibitory concentration (MIC) ([12]; 1 × 10^6 cells/ml): 0.195
- minimum inhibitory concentration (MIC) ([12]; 1 × 10^8 cells/ml): 0.39

Compound: 6,8-Difluoro-1-(4-fluorophenyl)-7-(1-piperazinyl)-1,4-dihydro-4-oxoquinoline-3-carboxylic acid [Test Compd. No. 2]
- minimum inhibitory concentration (MIC) ([1]; 1 × 10^6 cells/ml): 0.097
- minimum inhibitory concentration (MIC) ([1]; 1 × 10^8 cells/ml): 0.195
- minimum inhibitory concentration (MIC) ([2]; 1 × 10^6 cells/ml): < 0.048
- minimum inhibitory concentration (MIC) ([2]; 1 × 10^8 cells/ml): < 0.048
- minimum inhibitory concentration (MIC) ([3]; 1 × 10^6 cells/ml): 1.56
- minimum inhibitory concentration (MIC) ([3]; 1 × 10^8 cells/ml): 1.56
- minimum inhibitory concentration (MIC) (Escherichia coli No. 29; 1 × 10^6 cells/ml): < 0.048
- minimum inhibitory concentration (MIC) (Escherichia coli No. 29; 1 × 10^8 cells/ml): < 0.048
- minimum inhibitory concentration (MIC) ([4]; 1 × 10^6 cells/ml): 0.097
- minimum inhibitory concentration (MIC) ([4]; 1 × 10^8 cells/ml): 0.195
- minimum inhibitory concentration (MIC) ([5]; 1 × 10^6 cells/ml): 0.781
- minimum inhibitory concentration (MIC) ([5]; 1 × 10^8 cells/ml): 1.56
- minimum inhibitory concentration (MIC) ([6]; 1 × 10^6 cells/ml): 0.781
- minimum inhibitory concentration (MIC) ([6]; 1 × 10^8 cells/ml): 1.56
- minimum inhibitory concentration (MIC) ([7]; 1 × 10^6 cells/ml): 1.56
- minimum inhibitory concentration (MIC) ([7]; 1 × 10^8 cells/ml): 3.12
- minimum inhibitory concentration (MIC) ([8]; 1 × 10^6 cells/ml): 1.56
- minimum inhibitory concentration (MIC) ([8]; 1 × 10^8 cells/ml): 1.56
- minimum inhibitory concentration (MIC) ([9]; 1 × 10^6 cells/ml): 0.781
- minimum inhibitory concentration (MIC) ([9]; 1 × 10^8 cells/ml): 1.56
- minimum inhibitory concentration (MIC) ([10]; 1 × 10^6 cells/ml): 0.39
- minimum inhibitory concentration (MIC) ([10]; 1 × 10^8 cells/ml): 0.781
- minimum inhibitory concentration (MIC) ([11]; 1 × 10^8 cells/ml): 6.25
- minimum inhibitory concentration (MIC) ([12]; 1 × 10^6 cells/ml): 0.195
- minimum inhibitory concentration (MIC) ([12]; 1 × 10^8 cells/ml): 0.195

Compound: CN1CCN(c2c(F)cc3c(=O)c(C(=O)O)cn(-c4ccc(O)cc4)c3c2F)CC1 [Test Compd. No. 1, 6,8-Difluoro-1-(4-hydroxyphenyl)-7-(4-methyl-1-piperazinyl)-1,4-dihydro-4-oxoquinoline-3-carboxylic acid]
- concentration at 0.5 h ([13]; Run 1, 0.5 hour, read-out: Amount of test compd. in plasma): 2350 ng/mL
- concentration at 1 h ([13]; Run 1, 1 hour, read-out: Amount of test compd. in plasma): 4260 ng/mL
- concentration at 2 h ([13]; Run 1, 2 hour, read-out: Amount of test compd. in plasma): 1940 ng/mL
- concentration at 4 h ([13]; Run 1, 4 hour, read-out: Amount of test compd. in plasma): 720 ng/mL
- concentration at 7 h ([13]; Run 1, 7 hour, read-out: Amount of test compd. in plasma): < 200 ng/mL
- concentration at 24 h ([13]; Run 1, 24 hour, read-out: Amount of test compd. in plasma): < 200 ng/mL
- concentration at 0.5 h ([13]; Run 2, 0.5 hour, read-out: Amount of test compd. in plasma): < 200 ng/mL
- concentration at 1 h ([13]; Run 2, 1 hour, read-out: Amount of test compd. in plasma): 2180 ng/mL
- concentration at 2 h ([13]; Run 2, 2 hour, read-out: Amount of test compd. in plasma): 1120 ng/mL
- concentration at 4 h ([13]; Run 2, 4 hour, read-out: Amount of test compd. in plasma): 1120 ng/mL
- concentration at 7 h ([13]; Run 2, 7 hour, read-out: Amount of test compd. in plasma): < 200 ng/mL
- concentration at 24 h ([13]; Run 2, 24 hour, read-out: Amount of test compd. in plasma): < 200 ng/mL
- concentration at 0.5 h ([13]; average of two runs, 0.5 hour, read-out: Amount of test compd. in plasma, Average): < 1370 ng/mL
- concentration at 1 h ([13]; average of two runs, 1 hour, read-out: Amount of test compd. in plasma, Average): 3220 ng/mL
- concentration at 2 h ([13]; average of two runs, 2 hour, read-out: Amount of test compd. in plasma, Average): 1530 ng/mL
- concentration at 4 h ([13]; average of two runs, 4 hour, read-out: Amount of test compd. in plasma, Average): 920 ng/mL
- concentration at 7 h ([13]; average of two runs, 7 hour, read-out: Amount of test compd. in plasma, Average): < 390 ng/mL
- concentration at 24 h ([13]; average of two runs, 24 hour, read-out: Amount of test compd. in plasma, Average): < 390 ng/mL
- minimum inhibitory concentration (MIC) ([1]; 1 × 10^6 cells/ml): < 0.048
- minimum inhibitory concentration (MIC) ([1]; 1 × 10^8 cells/ml): < 0.048
- minimum inhibitory concentration (MIC) ([2]; 1 × 10^6 cells/ml): < 0.048
- minimum inhibitory concentration (MIC) ([2]; 1 × 10^8 cells/ml): < 0.048
- minimum inhibitory concentration (MIC) ([3]; 1 × 10^6 cells/ml): 0.097
- minimum inhibitory concentration (MIC) ([3]; 1 × 10^8 cells/ml): 0.195
- minimum inhibitory concentration (MIC) (Escherichia coli No. 29; 1 × 10^6 cells/ml): < 0.048
- minimum inhibitory concentration (MIC) (Escherichia coli No. 29; 1 × 10^8 cells/ml): < 0.048
- minimum inhibitory concentration (MIC) ([4]; 1 × 10^6 cells/ml): < 0.048
- minimum inhibitory concentration (MIC) ([4]; 1 × 10^8 cells/ml): < 0.048
- minimum inhibitory concentration (MIC) ([5]; 1 × 10^6 cells/ml): < 0.048
- minimum inhibitory concentration (MIC) ([5]; 1 × 10^8 cells/ml): 0.097
- minimum inhibitory concentration (MIC) ([6]; 1 × 10^6 cells/ml): 0.097
- minimum inhibitory concentration (MIC) ([6]; 1 × 10^8 cells/ml): 0.195
- minimum inhibitory concentration (MIC) ([7]; 1 × 10^6 cells/ml): 0.097
- minimum inhibitory concentration (MIC) ([7]; 1 × 10^8 cells/ml): 0.195
- minimum inhibitory concentration (MIC) ([8]; 1 × 10^6 cells/ml): 0.195
- minimum inhibitory concentration (MIC) ([8]; 1 × 10^8 cells/ml): 0.39
- minimum inhibitory concentration (MIC) ([9]; 1 × 10^6 cells/ml): < 0.048
- minimum inhibitory concentration (MIC) ([9]; 1 × 10^8 cells/ml): 0.097
- minimum inhibitory concentration (MIC) ([10]; 1 × 10^6 cells/ml): < 0.048
- minimum inhibitory concentration (MIC) ([10]; 1 × 10^8 cells/ml): < 0.048
- minimum inhibitory concentration (MIC) ([11]; 1 × 10^6 cells/ml): 0.39
- minimum inhibitory concentration (MIC) ([11]; 1 × 10^8 cells/ml): 0.781
- minimum inhibitory concentration (MIC) ([12]; 1 × 10^6 cells/ml): < 0.048
- minimum inhibitory concentration (MIC) ([12]; 1 × 10^8 cells/ml): < 0.048
